From US4450269A, “Mono-5-substituted-3-chloro-4H-1,2,6-thiadiazin-4-one antifungal agents” (FMC Corporation, priority 1980, dated 1984)

What was measured:
Test in all cases: Spore germination test
Type in all cases: cell-based
Erysiphe polygoni = settings: EP, 48 hours
Summary of the method: (§1)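 Compound in acetone was mixed into water agar at final 40, 10, 2.5 and 1 ppm and poured into quadrant dishes. Quadrants received spore suspension, while Erysiphe polygoni and Uromyces phaseoli spores were brushed on from infected leaves. After 48 h at 24 °C, the percentage of germinated spores was converted to a germination rating.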

Alternaria solani = settings: AS, 48 hours
Summary of the method: as §1

Botrytis cinerea = settings: BC, 48 hours
Summary of the method: as §1

| Structure (SMILES) | Spore Germination Rating (Erysiphe polygoni; 1.0 ppm) | Spore Germination Rating (Erysiphe polygoni; 2.5 ppm) | Spore Germination Rating (Erysiphe polygoni; 10 ppm) | Spore Germination Rating (Erysiphe polygoni; 40 ppm) | Spore Germination Rating (Alternaria solani; 1.0 ppm) | Spore Germination Rating (Alternaria solani; 2.5 ppm) | Spore Germination Rating (Alternaria solani; 10 ppm) | Spore Germination Rating (Alternaria solani; 40 ppm) | Spore Germination Rating (Botrytis cinerea; 1.0 ppm) | Spore Germination Rating (Botrytis cinerea; 2.5 ppm) | Spore Germination Rating (Botrytis cinerea; 10 ppm) | Spore Germination Rating (Botrytis cinerea; 40 ppm) |
| --- | --- | --- | --- | --- | --- | --- | --- | --- | --- | --- | --- | --- |
| O=c1c(Cl)nsnc1Oc1cccc(Cl)c1 [Compound 13, 3-chloro-5-(3-chlorophenoxy)-4H--1,2,6-thiadiazin-4-one] | 4 (80-100) | 2 (40-60) | 0 (0-10) | 0 (0-10) | 2 (40-60) | 0 (0-10) | 0 (0-10) | 0 (0-10) | 4 (80-100) | 4 (80-100) | 0 (0-10) | 0 (0-10) |
| O=c1c(Cl)nsnc1Oc1ccccc1Cl [Compound 14, 3-chloro-5-(2-chlorophenoxy)-4H--1,2,6-thiadiazin-4-one] | 4 (80-100) | 4 (80-100) | 2 (40-60) | 0 (0-10) | 3 (60-80) | 2 (40-60) | 0 (0-10) | 0 (0-10) | 3 (60-80) | 0 (0-10) | 0 (0-10) | 0 (0-10) |
| O=c1c(Cl)nsnc1Oc1ccc(Br)cc1 [Compound 15, 3-chloro-5-(4-bromophenoxy)-4H--1,2,6-thiadiazin-4-one] | 4 (80-100) | 1 (10-40) | 0 (0-10) | 0 (0-10) | 4 (80-100) | 1 (10-40) | 0 (0-10) | 0 (0-10) | 4 (80-100) | 1 (10-40) | 0 (0-10) | 0 (0-10) |
| O=c1c(Cl)nsnc1Oc1ccc(Cl)c(Cl)c1 [Compound 16, 3-chloro-5-(3,4-dichlorophenoxy)-4H--1,2,6-thiadiazin-4-one] | 4 (80-100) | 3 (60-80) | 1 (10-40) | 4 (80-100) | 1 (10-40) | 0 (0-10) | 0 (0-10) | 0 (0-10) | 4 (80-100) | 1 (10-40) | 0 (0-10) | 1 (10-40) |
| O=c1c(Cl)nsnc1Oc1ccc(Cl)cc1Cl [Compound 17, 3-chloro-5-(2,4-dichlorophenoxy)-4H--1,2,6-thiadiazin-4-one] | 3 (60-80) | 1 (10-40) | 0 (0-10) | 0 (0-10) | 2 (40-60) | 1 (10-40) | 0 (0-10) | 0 (0-10) | 4 (80-100) | 0 (0-10) | 0 (0-10) | 0 (0-10) |
| O=c1c(Cl)nsnc1Oc1c(Cl)cccc1Cl [Compound 18, 3-chloro-5-(2,6-dichlorophenoxy)-4H--1,2,6-thiadiazin-4-one] | 2 (40-60) | 1 (10-40) | 0 (0-10) | 0 (0-10) | 3 (60-80) | 2 (40-60) | 1 (10-40) | 0 (0-10) | 4 (80-100) | 1 (10-40) | 0 (0-10) | 0 (0-10) |
| O=c1c(Cl)nsnc1Oc1cccc(Cl)c1Cl [Compound 19, 3-chloro-5-(2,3-dichlorophenoxy)-4H--1,2,6-thiadiazin-4-one] | 3 (60-80) | 1 (10-40) | 0 (0-10) | 0 (0-10) | 3 (60-80) | 3 (60-80) | 0 (0-10) | 0 (0-10) | 4 (80-100) | 1 (10-40) | 0 (0-10) | 0 (0-10) |
| O=c1c(Cl)nsnc1Oc1cc(Cl)cc(Cl)c1 [Compound 20, 3-chloro-5-(3,5-dichlorophenoxy)-4H--1,2,6-thiadiazin-4-one] | 3 (60-80) | 0 (0-10) | 0 (0-10) | 0 (0-10) | 2 (40-60) | 0 (0-10) | 0 (0-10) | 0 (0-10) | 4 (80-100) | 0 (0-10) | 0 (0-10) | 0 (0-10) |
| Cc1cccc(Oc2nsnc(Cl)c2=O)c1 [Compound 21, 3-chloro-5-(3-methylphenoxy)-4H--1,2,6-thiadiazin-4-one] | 4 (80-100) | 3 (60-80) | 2 (40-60) | 0 (0-10) | 3 (60-80) | 1 (10-40) | 0 (0-10) | 0 (0-10) | 4 (80-100) | 3 (60-80) | 0 (0-10) | 0 (0-10) |
| Cc1ccccc1Oc1nsnc(Cl)c1=O [Compound 22, 3-chloro-5-(2-methylphenoxy)-4H--1,2,6-thiadiazin-4-one] | 4 (80-100) | 4 (80-100) | 3 (60-80) | 1 (10-40) | 3 (60-80) | 0 (0-10) | 0 (0-10) | 0 (0-10) | 2 (40-60) | 0 (0-10) | 0 (0-10) | 0 (0-10) |
| Cc1ccc(Oc2nsnc(Cl)c2=O)c(C)c1 [Compound 23, 3-chloro-5-(2,4-dimethylphenoxy)-4H--1,2,6-thiadiazin-4-one] | 4 (80-100) | 4 (80-100) | 3 (60-80) | 1 (10-40) | 3 (60-80) | 3 (60-80) | 0 (0-10) | 0 (0-10) | 4 (80-100) | 4 (80-100) | 4 (80-100) | 0 (0-10) |
| Cc1cccc(C)c1Oc1nsnc(Cl)c1=O [Compound 24, 3-chloro-5-(2,6-dimethylphenoxy)-4H--1,2,6-thiadiazin-4-one] | 3 (60-80) | 1 (10-40) | 0 (0-10) | 0 (0-10) | 1 (10-40) | 1 (10-40) | 0 (0-10) | 0 (0-10) | 3 (60-80) | 1 (10-40) | 0 (0-10) | 0 (0-10) |
| Cc1cc(C)cc(Oc2nsnc(Cl)c2=O)c1 [Compound 25, 3-chloro-5-(3,5-dimethylphenoxy)-4H--1,2,6-thiadiazin-4-one] | 4 (80-100) | 4 (80-100) | 0 (0-10) | 0 (0-10) | 4 (80-100) | 2 (40-60) | 0 (0-10) | 0 (0-10) | 2 (40-60) | 1 (10-40) | 0 (0-10) | 0 (0-10) |
| Nc1ccc(Oc2nsnc(Cl)c2=O)cc1 [Compound 26, 5-(4-aminophenoxy)-3-chloro-4H--1,2,6-thiadiazin-4-one] | 4 (80-100) | 4 (80-100) | 4 (80-100) | 4 (80-100) | 4 (80-100) | 3 (60-80) | 0 (0-10) | 0 (0-10) | 0 (0-10) | 0 (0-10) | 0 (0-10) | 0 (0-10) |
